In test [1] the target is Phosphatidylinositol 4-phosphate 3-kinase C2 domain-containing subunit beta (Homo sapiens) (UniProt O00750). Nature of the test: Selectivity interaction (KinomeScan (DiscoverX)) EUB0000595a PIK3C2B. The note with it: at 10 µM.
Test [2] addresses T1, Cyclin-dependent kinase 11A (Homo sapiens) (UniProt Q9UQ88).
T1 sequence (whole entry): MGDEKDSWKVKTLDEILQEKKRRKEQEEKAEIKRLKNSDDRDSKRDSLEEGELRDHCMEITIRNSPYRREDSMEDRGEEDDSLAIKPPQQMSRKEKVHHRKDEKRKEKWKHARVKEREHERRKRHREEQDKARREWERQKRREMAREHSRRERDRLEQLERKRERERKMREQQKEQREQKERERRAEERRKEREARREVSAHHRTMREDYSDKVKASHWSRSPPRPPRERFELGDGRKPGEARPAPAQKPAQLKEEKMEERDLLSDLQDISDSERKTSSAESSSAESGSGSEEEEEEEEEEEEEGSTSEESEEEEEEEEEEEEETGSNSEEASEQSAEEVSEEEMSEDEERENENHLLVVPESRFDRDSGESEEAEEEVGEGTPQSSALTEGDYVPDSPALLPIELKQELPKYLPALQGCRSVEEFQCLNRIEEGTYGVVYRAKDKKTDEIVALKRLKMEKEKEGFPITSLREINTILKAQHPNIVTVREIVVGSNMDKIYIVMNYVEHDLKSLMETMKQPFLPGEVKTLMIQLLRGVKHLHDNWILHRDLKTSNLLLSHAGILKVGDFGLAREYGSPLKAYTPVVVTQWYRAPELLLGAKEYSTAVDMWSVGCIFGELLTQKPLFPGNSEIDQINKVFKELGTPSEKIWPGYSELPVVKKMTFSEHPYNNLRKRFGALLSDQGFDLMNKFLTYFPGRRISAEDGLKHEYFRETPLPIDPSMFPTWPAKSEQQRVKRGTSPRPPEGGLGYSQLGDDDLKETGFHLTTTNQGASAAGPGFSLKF
Description: Selectivity interaction (KinomeScan (DiscoverX)) EUB0000595a CDK11A. The note with it: at 10 µM.

For test [3], the target named is T2, Serine/threonine-protein kinase LATS2 (Homo sapiens) (UniProt Q9NRM7).
T2 sequence (whole entry): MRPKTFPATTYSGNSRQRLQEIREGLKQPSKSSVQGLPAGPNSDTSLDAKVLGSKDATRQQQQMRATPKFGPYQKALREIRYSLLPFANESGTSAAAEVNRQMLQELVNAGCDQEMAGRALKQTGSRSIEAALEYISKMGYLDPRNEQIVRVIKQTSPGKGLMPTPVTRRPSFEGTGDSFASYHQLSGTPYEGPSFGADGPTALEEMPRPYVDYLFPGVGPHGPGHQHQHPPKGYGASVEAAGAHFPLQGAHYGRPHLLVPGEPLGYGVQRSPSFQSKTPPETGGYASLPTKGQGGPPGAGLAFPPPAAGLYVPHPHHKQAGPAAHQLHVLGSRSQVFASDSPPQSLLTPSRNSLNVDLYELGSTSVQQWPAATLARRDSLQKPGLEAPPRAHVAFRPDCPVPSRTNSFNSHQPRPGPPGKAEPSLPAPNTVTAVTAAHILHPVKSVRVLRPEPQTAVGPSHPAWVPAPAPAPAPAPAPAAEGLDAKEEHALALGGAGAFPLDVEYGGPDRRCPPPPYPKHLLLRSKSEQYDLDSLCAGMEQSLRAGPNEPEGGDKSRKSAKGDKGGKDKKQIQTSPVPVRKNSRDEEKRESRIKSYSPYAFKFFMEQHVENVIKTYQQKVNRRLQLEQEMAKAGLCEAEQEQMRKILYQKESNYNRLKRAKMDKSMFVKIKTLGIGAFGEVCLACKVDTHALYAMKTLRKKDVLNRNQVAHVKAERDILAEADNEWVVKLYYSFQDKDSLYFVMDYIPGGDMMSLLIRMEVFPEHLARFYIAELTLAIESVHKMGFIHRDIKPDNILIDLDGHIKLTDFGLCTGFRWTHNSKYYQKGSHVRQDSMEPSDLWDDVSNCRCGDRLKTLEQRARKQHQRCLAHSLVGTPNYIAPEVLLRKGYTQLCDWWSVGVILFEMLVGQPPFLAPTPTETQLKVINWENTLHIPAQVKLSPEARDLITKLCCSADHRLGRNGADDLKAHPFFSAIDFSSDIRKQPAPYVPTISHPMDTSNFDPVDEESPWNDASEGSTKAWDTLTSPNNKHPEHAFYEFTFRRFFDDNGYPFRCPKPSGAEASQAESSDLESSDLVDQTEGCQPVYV
Nature of the test: Selectivity interaction (KinomeScan (DiscoverX)) EUB0001619a LATS2. The conditions noted are these: at 1 µM.

In test [4] the target is T3, Mitogen-activated protein kinase kinase kinase 3 (Homo sapiens) (UniProt Q99759).
T3 sequence (whole entry): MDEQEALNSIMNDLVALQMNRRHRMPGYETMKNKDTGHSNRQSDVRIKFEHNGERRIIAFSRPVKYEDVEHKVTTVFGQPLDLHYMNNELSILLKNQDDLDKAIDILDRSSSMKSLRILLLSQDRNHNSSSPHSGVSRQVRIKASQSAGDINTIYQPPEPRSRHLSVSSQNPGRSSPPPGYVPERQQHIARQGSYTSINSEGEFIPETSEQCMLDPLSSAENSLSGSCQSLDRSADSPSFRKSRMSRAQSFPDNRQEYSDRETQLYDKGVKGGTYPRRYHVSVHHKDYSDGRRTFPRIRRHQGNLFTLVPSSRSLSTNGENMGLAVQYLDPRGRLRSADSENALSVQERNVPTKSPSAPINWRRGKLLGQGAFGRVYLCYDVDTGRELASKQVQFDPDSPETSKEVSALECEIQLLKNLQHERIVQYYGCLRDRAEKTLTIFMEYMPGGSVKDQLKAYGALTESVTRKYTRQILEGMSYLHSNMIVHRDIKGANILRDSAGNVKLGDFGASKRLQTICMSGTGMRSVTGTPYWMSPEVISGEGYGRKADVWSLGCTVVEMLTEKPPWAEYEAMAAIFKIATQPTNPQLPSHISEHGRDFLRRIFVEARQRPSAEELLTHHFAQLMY
Description: Selectivity interaction (ActivX KiNativ screen (kinase selectivity in THP-1 cell lysates)) EUB0000639a MAP3K3. The note with it: lysate, at 0.2 µM. The format is subcellular.

Chain of Phosphatidylinositol 4-phosphate 3-kinase C2 domain-containing subunit beta (Homo sapiens) (O00750 whole entry, the tested form may be a part): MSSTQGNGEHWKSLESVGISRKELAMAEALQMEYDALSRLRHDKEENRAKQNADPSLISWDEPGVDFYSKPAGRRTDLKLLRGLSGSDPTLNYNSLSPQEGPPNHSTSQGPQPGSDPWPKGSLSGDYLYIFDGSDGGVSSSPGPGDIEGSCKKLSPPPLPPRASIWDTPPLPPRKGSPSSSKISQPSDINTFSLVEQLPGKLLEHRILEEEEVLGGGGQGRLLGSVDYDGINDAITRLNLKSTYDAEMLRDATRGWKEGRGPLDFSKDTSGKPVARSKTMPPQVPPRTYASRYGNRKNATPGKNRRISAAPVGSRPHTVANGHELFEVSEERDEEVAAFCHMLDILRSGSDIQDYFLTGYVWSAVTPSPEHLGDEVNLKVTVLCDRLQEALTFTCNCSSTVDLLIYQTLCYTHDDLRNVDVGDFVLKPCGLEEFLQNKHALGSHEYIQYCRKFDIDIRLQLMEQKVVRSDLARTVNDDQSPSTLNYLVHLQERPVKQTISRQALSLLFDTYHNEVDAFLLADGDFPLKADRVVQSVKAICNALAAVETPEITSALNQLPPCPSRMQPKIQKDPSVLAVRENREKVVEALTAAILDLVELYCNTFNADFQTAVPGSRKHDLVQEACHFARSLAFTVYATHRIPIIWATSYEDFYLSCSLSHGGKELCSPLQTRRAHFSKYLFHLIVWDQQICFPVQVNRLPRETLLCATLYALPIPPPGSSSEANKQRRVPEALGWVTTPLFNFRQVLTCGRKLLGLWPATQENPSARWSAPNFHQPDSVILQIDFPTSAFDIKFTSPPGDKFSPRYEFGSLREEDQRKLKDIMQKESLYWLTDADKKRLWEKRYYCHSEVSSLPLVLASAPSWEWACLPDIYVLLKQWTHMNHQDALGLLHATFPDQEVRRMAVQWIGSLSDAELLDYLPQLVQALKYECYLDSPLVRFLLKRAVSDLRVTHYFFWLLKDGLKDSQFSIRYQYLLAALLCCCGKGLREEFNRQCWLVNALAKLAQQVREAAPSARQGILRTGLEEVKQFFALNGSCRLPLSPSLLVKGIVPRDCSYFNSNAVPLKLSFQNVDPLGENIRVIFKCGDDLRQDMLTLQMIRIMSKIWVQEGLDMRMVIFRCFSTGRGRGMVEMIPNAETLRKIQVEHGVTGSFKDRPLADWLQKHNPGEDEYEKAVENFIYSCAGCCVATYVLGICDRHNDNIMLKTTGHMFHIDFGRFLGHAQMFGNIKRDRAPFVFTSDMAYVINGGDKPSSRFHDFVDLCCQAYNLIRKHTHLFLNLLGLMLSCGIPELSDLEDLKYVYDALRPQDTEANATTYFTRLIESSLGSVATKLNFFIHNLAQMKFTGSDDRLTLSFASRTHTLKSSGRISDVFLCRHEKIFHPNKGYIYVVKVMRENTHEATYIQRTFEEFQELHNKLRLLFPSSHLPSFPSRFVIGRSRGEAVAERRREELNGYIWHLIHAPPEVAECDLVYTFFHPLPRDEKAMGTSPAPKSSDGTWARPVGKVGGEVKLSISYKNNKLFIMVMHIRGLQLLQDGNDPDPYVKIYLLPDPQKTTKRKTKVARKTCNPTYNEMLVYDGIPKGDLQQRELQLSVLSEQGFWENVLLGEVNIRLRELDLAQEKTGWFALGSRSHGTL

On to `COCC(=O)NC/C=C/c1ccc2ncnc(Nc3ccc(Oc4ccc(C)nc4)c(C)c3)c2c1` [CP-724714], for which the % of control in test [1] worked out at 88%; in test [2], 100%. With `N#Cc1cccc(-c2c[nH]c3ncnc(N4CCOCC4)c23)c1`, the % of control in test [3] was 87%. For the compound `CC[C@@H]1[C@H](F)C(=O)N[C@@H]1COc1nccc2cc(C(N)=O)c(OC)cc12` [ZIMLOVISERTIB], the % of inhibition in test [4] was -0.9%.

For the origin of these results see ChEMBL document CHEMBL5465560, “Selectivity Literature for EUbOPEN Chemogenomic Library” (2024).
